Here are results for three compounds from patent publication US7220784B2, “Substituted stilbenes and their reactions” (priority 2000, dated 2007).

Molecules are shown by their SMILES. Some results are limits rather than exact numbers.

The subject of assay [1] is A2780. Put plainly: Cytotoxicity/growth inhibition assay (MTT), A2780. The format is cell-based. Particulars: read-out: A2780 IC50. Here is the method:
The following assays (1–5) were carried out as described in our paper (Woods, et al, British Journal of Cancer, 71, 705–711 (1995)). In addition to the cell lines described in this paper, other established human cell lines (K562, HUVEC, H460, BE, H529, and HT29) were used in the cytotoxicity/growth inhibition assay. • (1) Inhibition of tubulin assembly. The figure quoted is the concentration required to reduce assembly of tubulin by 50%. Tubulin assembly is monitored by light scatter/absorption at 350 nm.
(§1) (2) Competition for the colchicine binding site on tubulin. The figure quoted represents the % of ^3H-colchicine bound following co-incubation of test compound and ^3H-cochicine with isolated tubulin. Where ester pro-drugs were used the experiments were carried out in the presence and absence of porcine liver esterase. • (3) Cytotoxicity/growth inhibition assay. This was carried out by the MTT assay. • (4) Permeability (shape-change) assay in endothelial cells. This was carried out using a method based on that of Watts et al. (Anticancer Res., 17, 71–75, (1997)). This involved the diffusion of a fluorescently labelled dextran through a barrier of endothelial cells (HUVEC) grown to confluence on a porous membrane. The effect of agents to alter the shape of these cells results in an increase in the permeability of the cells to the dye. The figure represents the increase in permeability over control cultures when drug is added (30 minutes, 1 mM.). • (5) Experiments to study the anti-vascular effects of these agents were carried out as described previously by our group. (Zhao et al, European Journal of Nuclear Medicine, 26, 231–238 (1999)). The anti-vascular effects of the agents were monitored by either positron emission tomography (PET) or by histologogical examination following treatment of mice bearing T50:80 murine breast tumours, or H460 human lung tumours. • (6) Anti-tumour efficacy of agents was determined in xenografts of H460 human lung cancer. Animals (n=5) were trated either with 5 daily injections and tumour size measured with time following treatment. • (7) The pharmacokinetic profile of agents was determined in mice following injection with drug. Blood was taken at various times following treatment and analysed by HPLC with UV detection. The HPLC conditions were isocratic using a 5 micron C18 BDS column (150×4.6) ad eluting with 75% MeOH in water with a detection wavelength of 290 nm. […] (AND(P)H:quinone oxidoreductace, EC 1.6.99.2). DT-diaphorase is an enzyme over-expressed in a number of human tumours. […] This two-electron reducing enzyme can be used to selectively activate prodrugs within cancers which over-express the enzyme.

The test system of assay [2] is P388 murine leukaemia cell line. Put plainly: Cytotoxicity/growth inhibition assay (MTT), P388. It counts as cell-based. How it is done:
as §1, with “This was carried out using a method based on that of Watts et al. (Anticancer Res., 17, 71–75, (1997)).” left out, “(Zhao et al, European Journal of Nuclear Medicine, 26, 231–238 (1999)).” left out, “detection.” for “detection. The HPLC conditions were isocratic using a 5 micron C18 BDS column (150×4.6) ad eluting with 75% MeOH in water with a detection wavelength of 290 nm.”

The subject of assay [3] is K562 human myelogeneous leukaemia cell line. Put plainly: Cytotoxicity/growth inhibition assay (MTT), K562. The format is cell-based. The following applies: Homo sapiens, K562; MTT; read-out: K562 IC50.
Description: In addition to the cell lines described in this paper, other established human cell lines (K562, HUVEC, H460, BE, H529, and HT29) were used in the cytotoxicity/growth inhibition assay. • (1) Inhibition of tubulin assembly. The figure quoted is the concentration required to reduce assembly of tubulin by 50%. Tubulin assembly is monitored by light scatter/absorption at 350 nm.
as §1, with “This was carried out using a method based on that of Watts et al. (Anticancer Res., 17, 71–75, (1997)).” left out, “(Zhao et al, European Journal of Nuclear Medicine, 26, 231–238 (1999)).” left out, “detection.” for “detection. The HPLC conditions were isocratic using a 5 micron C18 BDS column (150×4.6) ad eluting with 75% MeOH in water with a detection wavelength of 290 nm.”

The subject of assay [4] is tubulin. The assay can be described thus: MA IC50 (Tables 12-26, abbreviation not defined). It counts as biochemical.
The test system of assay [5] is tubulin. The assay can be described thus: CD IC50 (Tables 12-26, abbreviation not defined). The format is binding.
For assay [6], the system named is K562. The assay can be described thus: K562 cell cycle analysis. The format is cell-based, human. Particulars: K562; for % of cells in G0–G1 / % of cells in G2-M / % of cells in S phase: of cells with DNA content = 2 n or >2 n.

Take `COc1cc(C=Cc2ccc(C=O)cc2)cc(OC)c1OC` [Compound 96-188]: the IC50 (as a rule, the midpoint of a concentration-inhibition curve) in assay [1] came to 81 nM; in assay [2] (MTT), 320 nM.
In the case of `COc1ccc(C=Cc2ccc(C)c(C)c2)cc1O` [Compound 146], the IC50 in assay [2] (Mus musculus, P388, MTT) worked out at 400 nM; in assay [3] it was 70 nM; in assay [4], 3.09 µM; in assay [5], 12.5 µM. In assay [6], the “% of cells with DNA content <2 n” value is recorded as 31%. For the same compound, in assay [6], the “% of cells in G0–G1” value is on record as 8%. Besides, the “% of cells in G2-M” value in assay [6] was found to be 65%. In addition, in assay [6], the “% of cells in S phase” value was 27%.
On to `COc1ccc(C=Cc2ccc(C)c(C)c2)cc1F` [Compound 147], for which the IC50 in assay [2] (Mus musculus, P388, MTT) was 1700 nM; in assay [3] it was 90 nM; in assay [4], 6.57 µM; in assay [5] it was more than 25 µM. In assay [6], the “% of cells with DNA content <2 n” value was found to be 28%. Also, the “% of cells in G0–G1” value in assay [6] was determined as 10%. In addition, the “% of cells in G2-M” value in assay [6] is listed as 57%. Further, in assay [6], the “% of cells in S phase” value was 33%.
